Assays:
T47D cells [1] = assay: Carboplatin cytotoxicity, trypan blue test; format: cell-based
Description: (§1) For determination of cell viability, treated as well as non-treated cells were used. MDA-MB-231 and T47D cells were seeded in T-175 tissue culture flasks. At 80% confluency, the growth media was replaced with fresh media containing different concentrations of carboplatin for 48 and 72 h. All experiments were repeated twice. After treatment, the culture media was collected in a 50 ml centrifugation tube, since it might contain dead cells necessary for cell counts. The cell monolayer was washed with PBS and then collected in the same tube. Cells were treated with Trypsin and, Trypsin with the cells was collected in the same 50 ml tube. The suspension was centrifuged (5 min, 1200 rpm) and the supernatant removed. The pellet was washed with PBS, centrifuged (5 min, 1200 rpm) and re-suspended again in complete culture media. Then, a small aliquot of the cell suspension (25 μl) was mixed with the same volume of 0.4% trypan blue (Sigma) solution and the sample was counted after 2 min of staining using a haemocytometer. The number of bright (viable) cells and blue cells (non-viable) were evaluated using a light microscope with a 20-fold magnification. After counting, the cell viability (CV) was expressed as the percentage of surviving cells compared to the total number of cells: CV=(viable cells/total number of cells)×100.
(§2) The concentrations of drugs that were finally toxic to at least 50% of the cell population (IC50/cytotoxicity) were determined. Then, studies were performed looking at viability over the full range of carboplatin concentrations and compared to non-treated BCCs. At day 3-post treatment, viable resistant BCCs were selected and counted using standard protocols for downstream experiments on scaffolds.

MDA-MB-231 cells [2] = assay: Carboplatin cytotoxicity, trypan blue test; format: cell-based
Description: as §1, §2

MDA-MB-231 cells [3] = assay: Morphology of cells post addition of carboplatin; format: cell-based
Text: For these studies carboplatin sensitivity of MDA-MB-231 cells was investigated as previously mentioned. Different subpopulations were obtained for subsequent studies on scaffolds. Under normal condition, BCCs population in culture can be seen to be composed of a heterogeneous population of giant multi-nucleated cells mixed with small single-nucleated cells (FIGS. 38a and b.). […] Therefore, cells at 3-4 days post treatment were selected as being carboplatin resistant MDA-MB-231 cells.

MDA-MB-231 cells [4] = assay: Carboplatin survival curve for chemotherapy treated and non-treated cells; format: cell-based; conditions: for percent viability: 220 μg/ml carboplatin
Description: as §1, §2

[5] = tested on: MDA-MB-231 and T47D cells; assay: Western blots of breast cancer cell lines with increasing carboplatin dosage; format: cell-based; conditions: with increased carboplatin concentration
Description: Western blot was performed to detect the following proteins: Bax, Bcl-2, Oct-4 and Sox-2 for BCCs on scaffolds. Briefly, whole cell extracts were prepared with the NP-40 buffer and nuclear/cytoplasmic extracts with NE-PER Nuclear and Cytoplasmic Extraction kit. BCC extracts (20 μg) were subjected to electrophoresis on 4-20% SDS-PAGE (Bio-Rad; Hercules, Calif.). Proteins were transferred to PVDF membranes, and membranes were incubated overnight in the respective primary antibodies. This was followed by 2 h incubation with HRP-conjugated secondary antibodies at 1:2000 final dilutions. The latter was detected with chemiluminescence. Membranes were stripped with Restore Western Blot Stripping Buffer and then re-probed for other proteins, including β-actin mAb (1:4000 dilution). All bands were normalized to β-actin.

MDA-MB-231 cells [6] = conditions: treated cells
T47D cells [7] = assay: Flow cytometry of CD44/CD24 expression of carboplatin treated cells; format: cell-based
[8] = 2 days post treatment, maximum carboplatin concentration of 50 μg/ml
[9] = 3 days post treatment, 50 μg/ml carboplatin

Question: How did the death (T47D cells [1]; [8]) turn out when `N.N.O=C([O-])C1(C(=O)[O-])CCC1.[Pt+2]` [carboplatin] was run?
Answer: The death was 28%.

Question: And the death (T47D cells [1]; [9])?
Answer: Its death is 48%.

Question: And the death (MDA-MB-231 cells [2]; [8])?
Answer: The death was 17%.

Question: And the death (MDA-MB-231 cells [2]; [9])?
Answer: The death was 25%.

Question: What about the cell morphology (MDA-MB-231 cells [3]; 7 days post carboplatin treatment) of the same molecule?
Answer: The cell morphology was “fragmented and appeared to be dying”.

Question: And the “giant multi-nucleated cells in culture” value (MDA-MB-231 cells [3]; several hours post treatment with carboplatin)?
Answer: The value was “no longer present”.

Question: What about the “difference in percent viability between non-treated and treated cells” value (MDA-MB-231 cells [4]; 0 to 100 μg/ml carboplatin) of the same molecule?
Answer: Its value is “no significant difference”.

Question: What about the percent viability (MDA-MB-231 cells [4]; chemo-treated cells) of the same molecule?
Answer: The percent viability was 80%.

Question: And the percent viability (MDA-MB-231 cells [4]; non-treated cells)?
Answer: Its percent viability is 20%.

Question: What about the “decrease in percent viability” value (MDA-MB-231 cells [4]; non-treated cells, 100 to 120 μg/ml carboplatin) of the same molecule?
Answer: Its value is 30%.

Question: What about the “decrease in percent viability” value (MDA-MB-231 cells [4]; non-treated cells, 140 to 170 μg/ml carboplatin) of the same molecule?
Answer: Its value is 40%.

Question: And the “decrease in percent viability” value (MDA-MB-231 cells [4]; non-treated cells, 170 to 220 μg/ml carboplatin)?
Answer: The value was 80%.

Question: What about the “decrease in percent viability” value (MDA-MB-231 cells [4]; treated (chemoresistant) cells, 100 to 120 μg/ml carboplatin) of the same molecule?
Answer: Its value is 10%.

Question: And the “decrease in percent viability” value (MDA-MB-231 cells [4]; treated (chemoresistant) cells, 140 to 170 μg/ml carboplatin)?
Answer: The value was 20%.

Question: What about the “decrease in percent viability” value (MDA-MB-231 cells [4]; treated (chemoresistant) cells, 170 to 220 μg/ml carboplatin) of the same molecule?
Answer: The value was 20%.

Question: What about the Bcl-2 expression [5] of the same molecule?
Answer: Its Bcl-2 expression is “increased”.

Question: And the Oct-4 expression [5]?
Answer: The Oct-4 expression was “increased”.

Question: And the Sox2 expression [5]?
Answer: Its Sox2 expression is “increased”.

Question: And the “CD44^+/CD24^+ cells” value (MDA-MB-231 cells [6])?
Answer: The value was 81.4%.

Question: And the “CD44^+/CD24^− cells” value (MDA-MB-231 cells [6])?
Answer: The value was 18%.

Question: What about the “CD44^−/CD24^+ cells” value (MDA-MB-231 cells [6]) of the same molecule?
Answer: The value was 0.09%.

Question: What about the “CD44^−/CD24^− cells” value (MDA-MB-231 cells [6]) of the same molecule?
Answer: The value was 0.51%.

Question: And the “CD44^+/CD24^+ cells” value (T47D cells [7])?
Answer: Its value is 29%.

Question: And the “CD44^+/CD24^− cells” value (T47D cells [7])?
Answer: The value was 0.01%.

Question: And the “CD44^−/CD24^− cells” value (T47D cells [7])?
Answer: Its value is 0.99%.

Question: And the “CD44^−/low/CD24^+ cells” value (T47D cells [7])?
Answer: Its value is 70%.

Source: patent publication US10197563B2, “3-D in vitro model for breast cancer dormancy” (New Jersey Institute of Technology, priority 2015, dated 2019)
